Laboratory results as given in patent publication US20230085307A1, “PYRIDAZINONE COMPOUND AND HERBICIDE” (NISSAN CHEMICAL CORPORATION, priority 2019, published 2023).

What was measured:
chickweed [1] = assay: Test Example 5: herbicidal effect by foliage application, plastic box (Table 20, symbol P); assay type: in vivo, common chickweed (Stellaria media); details: foliage application, 320 g/ha, three weeks after application
In short: (§1)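 Plants sown in sterilized diluvial soil and grown 14 days in a greenhouse at 25° C to 30° C, then sprayed on the foliage with the compound's emulsion diluted in water to a predetermined herbicide amount. Injury to weeds and crops scored three weeks after application on a visual rating scale.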

barnyard grass [2] = assay: Test Example 5: herbicidal effect by foliage application, plastic box (Table 20, symbol H); assay type: in vivo, barnyard grass (Echinochloa crus-galli); details: foliage application, 320 g/ha, three weeks after application
In short: as §1

late watergrass = assay: Test Example 1: herbicidal activity, application before weed generation under submerged conditions (Table 16, symbol A); assay type: in vivo, late watergrass (Echinochloa oryzicola); details: amount of applied herbicide 320 g/ha
In short: (§2)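 Alluvial soil was flooded to 4 cm depth, weed seeds were sown mixed and 2.5-leaf rice seedlings were transplanted. On sowing day, the compound's emulsion, diluted in water to a set dose, was applied to the water surface. Plants grew at 25–30 °C and were scored 0–5 after three weeks.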

windgrass [3] = assay: Test Example 4: herbicidal effect by soil treatment (Table 19, symbol L); assay type: in vivo, windgrass (Apera spica-venti); details: amount of applied herbicide 320 g/ha
In short: (§3)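 Three weeks of greenhouse growth at 25° C. to 30° C. followed a uniform surface spray of water-diluted emulsion at a predetermined herbicide amount. Seeds had been sown beforehand under about 1.5 cm of sterilized diluvial soil. Grading followed criteria set out in an earlier test.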

barnyard grass [4] = assay: Test Example 4: herbicidal effect by soil treatment (Table 19, symbol H); assay type: in vivo, barnyard grass (Echinochloa crus-galli); details: amount of applied herbicide 320 g/ha
In short: as §3

blackgrass [5] = assay: Test Example 5: herbicidal effect by foliage application, plastic box (Table 20, symbol J); assay type: in vivo, blackgrass (Alopecurus myosuroides); details: foliage application, 320 g/ha, three weeks after application
In short: as §1

Chinese sprangletop = assay: Test Example 3: herbicidal effect by foliage application, Wagner pot (Table 18, symbol D); assay type: in vivo, chinese sprangletop (Leptochloa chinensis); details: amount of applied herbicide 320 g/ha
In short: (§4)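 Plants were sown in alluvial soil held under 0.1–0.5 cm standing water and grown 14 days in a greenhouse at 25–30 °C. An emulsifiable formulation, water-diluted to the set dose, was then sprayed onto the foliage, and effects were scored three weeks later using previously defined criteria.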

redroot pigweed [6] = assay: Test Example 4: herbicidal effect by soil treatment (Table 19, symbol N); assay type: in vivo, redroot pigweed (Amaranthus retroflexus); details: amount of applied herbicide 320 g/ha
In short: as §3

false cleavers = assay: Test Example 5: herbicidal effect by foliage application, plastic box (Table 20, symbol Q); assay type: in vivo, false cleavers (Galium spurium); details: foliage application, 320 g/ha, three weeks after application
In short: as §1

wild oat [7] = assay: Test Example 5: herbicidal effect by foliage application, plastic box (Table 20, symbol I); assay type: in vivo, wild oat (Avena fatua); details: foliage application, 320 g/ha, three weeks after application
In short: as §1

barnyard grass [8] = assay: Test Example 3: herbicidal effect by foliage application, Wagner pot (Table 18, symbol H); assay type: in vivo, barnyard grass (Echinochloa crus-galli); details: amount of applied herbicide 320 g/ha
In short: as §4

blackgrass [9] = assay: Test Example 4: herbicidal effect by soil treatment (Table 19, symbol J); assay type: in vivo, blackgrass (Alopecurus myosuroides); details: amount of applied herbicide 320 g/ha
In short: as §3

windgrass [10] = assay: Test Example 5: herbicidal effect by foliage application, plastic box (Table 20, symbol L); assay type: in vivo, windgrass (Apera spica-venti); details: foliage application, 320 g/ha, three weeks after application
In short: as §1

lambsquarters [11] = assay: Test Example 5: herbicidal effect by foliage application, plastic box (Table 20, symbol O); assay type: in vivo, lambsquarters (Chenopodium album); details: foliage application, 320 g/ha, three weeks after application
In short: as §1

wild oat [12] = assay: Test Example 4: herbicidal effect by soil treatment (Table 19, symbol I); assay type: in vivo, wild oat (Avena fatua); details: amount of applied herbicide 320 g/ha
In short: as §3

oval-leafed pondweed = assay: Test Example 1: herbicidal activity, application before weed generation under submerged conditions (Table 16, symbol C); assay type: in vivo, oval-leafed pondweed (Monochoria vaginalis); details: amount of applied herbicide 320 g/ha
In short: as §2

Italian ryegrass [13] = assay: Test Example 5: herbicidal effect by foliage application, plastic box (Table 20, symbol K); assay type: in vivo, Italian ryegrass (Lolium multiflorum); details: foliage application, 320 g/ha, three weeks after application
In short: as §1

lambsquarters [14] = assay: Test Example 4: herbicidal effect by soil treatment (Table 19, symbol O); assay type: in vivo, lambsquarters (Chenopodium album); details: amount of applied herbicide 320 g/ha
In short: as §3

Japanese bulrush = assay: Test Example 1: herbicidal activity, application before weed generation under submerged conditions (Table 16, symbol B); assay type: in vivo, Japanese bulrush (Schoenoplectus juncoides); details: amount of applied herbicide 320 g/ha
In short: as §2

rice flat sedge = assay: Test Example 3: herbicidal effect by foliage application, Wagner pot (Table 18, symbol E); assay type: in vivo, rice flat sedge (Cyperus iria); details: amount of applied herbicide 320 g/ha
In short: as §4

southern crabgrass [15] = assay: Test Example 5: herbicidal effect by foliage application, plastic box (Table 20, symbol F); assay type: in vivo, southern crabgrass (Digitaria ciliaris); details: foliage application, 320 g/ha, three weeks after application
In short: as §1

velvetleaf [16] = assay: Test Example 4: herbicidal effect by soil treatment (Table 19, symbol M); assay type: in vivo, velvetleaf (Abutilon theophrasti); details: amount of applied herbicide 320 g/ha
In short: as §3

green foxtail [17] = assay: Test Example 5: herbicidal effect by foliage application, plastic box (Table 20, symbol G); assay type: in vivo, green foxtail (Setaria viridis); details: foliage application, 320 g/ha, three weeks after application
In short: as §1

persian speedwell [18] = assay: Test Example 4: herbicidal effect by soil treatment (Table 19, symbol R); assay type: in vivo, Persian speedwell (Veronica persica); details: amount of applied herbicide 320 g/ha
In short: as §3

velvetleaf [19] = assay: Test Example 5: herbicidal effect by foliage application, plastic box (Table 20, symbol M); assay type: in vivo, velvetleaf (Abutilon theophrasti); details: foliage application, 320 g/ha, three weeks after application
In short: as §1

green foxtail [20] = assay: Test Example 4: herbicidal effect by soil treatment (Table 19, symbol G); assay type: in vivo, green foxtail (Setaria viridis); details: amount of applied herbicide 320 g/ha
In short: as §3

Italian ryegrass [21] = assay: Test Example 4: herbicidal effect by soil treatment (Table 19, symbol K); assay type: in vivo, Italian ryegrass (Lolium multiflorum); details: amount of applied herbicide 320 g/ha
In short: as §3

southern crabgrass [22] = assay: Test Example 4: herbicidal effect by soil treatment (Table 19, symbol F); assay type: in vivo, southern crabgrass (Digitaria ciliaris); details: amount of applied herbicide 320 g/ha
In short: as §3

chickweed [23] = assay: Test Example 4: herbicidal effect by soil treatment (Table 19, symbol P); assay type: in vivo, common chickweed (Stellaria media); details: amount of applied herbicide 320 g/ha
In short: as §3

persian speedwell [24] = assay: Test Example 5: herbicidal effect by foliage application, plastic box (Table 20, symbol R); assay type: in vivo, Persian speedwell (Veronica persica); details: foliage application, 320 g/ha, three weeks after application
In short: as §1

redroot pigweed [25] = assay: Test Example 5: herbicidal effect by foliage application, plastic box (Table 20, symbol N); assay type: in vivo, redroot pigweed (Amaranthus retroflexus); details: foliage application, 320 g/ha, three weeks after application
In short: as §1

Cc1nn(Cc2ccccc2)c(=O)c(-c2c(-c3ccc(F)cc3)sc3ccc(F)cc23)c1O [2-432]
P: chickweed, herbicidal effect grade (chickweed [1]): 5 (Herbicidal rate of 90% or more (almost completely withered)) | H: barnyard grass, herbicidal effect grade (barnyard grass [2]): 1 (Herbicidal rate of 5% or more and less than 20%) | Herbicidal effect, A: late watergrass (late watergrass): 2 (Herbicidal rate of 20% or more and less than 40%) | herbicidal effect, L: windgrass (windgrass [3]): 0 (Herbicidal rate of 5% or less (almost no effect)) | herbicidal effect, H: barnyard grass (barnyard grass [4]): 0 (Herbicidal rate of 5% or less (almost no effect)) | J: blackgrass, herbicidal effect grade (blackgrass [5]): 0 (Herbicidal rate of 5% or less (almost no effect)) | herbicidal effect on D: Chinese sprangletop (Chinese sprangletop): 0 (Herbicidal rate of 5% or less (almost no effect)) | herbicidal effect, N: redroot pigweed (redroot pigweed [6]): 3 (Herbicidal rate of 40% or more and less than 70%) | Q: false cleavers, herbicidal effect grade (false cleavers): 3 (Herbicidal rate of 40% or more and less than 70%) | I: wild oat, herbicidal effect grade (wild oat [7]): 0 (Herbicidal rate of 5% or less (almost no effect)) | herbicidal effect on H: barnyard grass (barnyard grass [8]): 3 (Herbicidal rate of 40% or more and less than 70%) | herbicidal effect, J: blackgrass (blackgrass [9]): 0 (Herbicidal rate of 5% or less (almost no effect)) | L: windgrass, herbicidal effect grade (windgrass [10]): 0 (Herbicidal rate of 5% or less (almost no effect)) | O: lambsquarters, herbicidal effect grade (lambsquarters [11]): 2 (Herbicidal rate of 20% or more and less than 40%) | herbicidal effect, I: wild oat (wild oat [12]): 0 (Herbicidal rate of 5% or less (almost no effect)) | Herbicidal effect, C: oval-leafed pondweed (oval-leafed pondweed): 0 (Herbicidal rate of 5% or less (almost no effect)) | K: Italian ryegrass, herbicidal effect grade (Italian ryegrass [13]): 0 (Herbicidal rate of 5% or less (almost no effect)) | herbicidal effect, O: lambsquarters (lambsquarters [14]): 2 (Herbicidal rate of 20% or more and less than 40%) | Herbicidal effect, B: Japanese bulrush (Japanese bulrush): 0 (Herbicidal rate of 5% or less (almost no effect)) | herbicidal effect on E: rice flat sedge (rice flat sedge): 2 (Herbicidal rate of 20% or more and less than 40%) | F: southern crabgrass, herbicidal effect grade (southern crabgrass [15]): 3 (Herbicidal rate of 40% or more and less than 70%) | herbicidal effect, M: velvetleaf (velvetleaf [16]): 0 (Herbicidal rate of 5% or less (almost no effect)) | G: green foxtail, herbicidal effect grade (green foxtail [17]): 0 (Herbicidal rate of 5% or less (almost no effect)) | herbicidal effect, R: persian speedwell (persian speedwell [18]): 0 (Herbicidal rate of 5% or less (almost no effect)) | M: velvetleaf, herbicidal effect grade (velvetleaf [19]): 1 (Herbicidal rate of 5% or more and less than 20%) | herbicidal effect, G: green foxtail (green foxtail [20]): 1 (Herbicidal rate of 5% or more and less than 20%) | herbicidal effect, K: Italian ryegrass (Italian ryegrass [21]): 0 (Herbicidal rate of 5% or less (almost no effect)) | herbicidal effect, F: southern crabgrass (southern crabgrass [22]): 0 (Herbicidal rate of 5% or less (almost no effect)) | herbicidal effect, P: chickweed (chickweed [23]): 0 (Herbicidal rate of 5% or less (almost no effect)) | R: persian speedwell, herbicidal effect grade (persian speedwell [24]): 5 (Herbicidal rate of 90% or more (almost completely withered)) | N: redroot pigweed, herbicidal effect grade (redroot pigweed [25]): 5 (Herbicidal rate of 90% or more (almost completely withered))
